Experimental data reported in patent publication US11479802B2, “Assays for screening activity of modulators of members of the hydroxy steroid (17-beta) dehydrogenase (HSD17B) family” (Regeneron Pharmaceuticals, Inc., priority 2017, dated 2022).

How the values were obtained:
Assay type in all cases: biochemical
[1] = molecular target: T1, HSD17B11 (Homo sapiens, UniProt Q8NBQ5); experiment: Steroid substrate panel against HSD17B family member B11; settings: substrate at 50 μM; estradiol set as 100%
T1 construct: made in house
T1 sequence (Q8NBQ5 20-300): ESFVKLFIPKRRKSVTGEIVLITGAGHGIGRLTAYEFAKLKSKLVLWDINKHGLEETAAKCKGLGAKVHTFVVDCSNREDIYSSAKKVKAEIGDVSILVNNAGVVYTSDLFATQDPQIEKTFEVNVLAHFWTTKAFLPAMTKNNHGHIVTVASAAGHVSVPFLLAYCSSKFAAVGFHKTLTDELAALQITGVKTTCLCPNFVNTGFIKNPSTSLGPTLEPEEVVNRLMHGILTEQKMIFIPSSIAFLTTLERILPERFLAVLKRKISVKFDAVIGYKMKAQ
Protocol: (§1) To understand the functional consequences of premature truncation of the HSD17B13 protein due to rs72613567:TA (the associated variant, rs72613567, is an insertion of an adenine adjacent to the donor splice site of exon six (TA allele)), the enzymatic activity of isoforms A and D was evaluated in vitro using recombinant protein and nicotinamide […] dinucleotide as cofactor. Reactions were performed in a final volume of 40 μl of assay buffer (0.2 M Tris-HCl, pH 7.5) which contained 500 μM NAD^+, 5 μM bioactive lipid or 50 μM steroid (all in a final concentration of 5% DMSO), and 100 ng of recombinant human HSD17B13. Reactions were incubated for 3 hours, at 23° C., after which an equal volume detection reagent was added. Following a 1 hour incubation at 23° C., the relative light units (RLUs) were measured on an Envision Plate Reader (Perkin Elmer). Raw RLU values were normalized as percent of control (50 μM estradiol) following subtraction of negative control (5% DMSO) using the following formula: Percent of control (POC)=100×(Sample (RLU)−Negative CTRLaverage)/(Positive CTRLaverage−Negative CTRLaverage).
(§2) In order to determine specificity of compounds with inhibitory activity against HSD17B13, assays for selected members of the HSD17B family which includes HSD17B1-HSD17B14 were established. As a first step, selected family members were expressed, purified and tested for activity a using a steroid substrate panel. Substrates from the steroid panel were tested at 50 μM, using the standard assay protocol. Activity against the substrates for each HSD17B family member were normalized to Percent of Control (POC). The control, estradiol, was set as 100%.

[2] = molecular target: T2, HSD17B5 (Homo sapiens, UniProt P42330); experiment: Steroid substrate panel against HSD17B family member B5; settings: substrate at 50 μM; estradiol set as 100%
T2 construct: made in house
T2 sequence (P42330 1-323): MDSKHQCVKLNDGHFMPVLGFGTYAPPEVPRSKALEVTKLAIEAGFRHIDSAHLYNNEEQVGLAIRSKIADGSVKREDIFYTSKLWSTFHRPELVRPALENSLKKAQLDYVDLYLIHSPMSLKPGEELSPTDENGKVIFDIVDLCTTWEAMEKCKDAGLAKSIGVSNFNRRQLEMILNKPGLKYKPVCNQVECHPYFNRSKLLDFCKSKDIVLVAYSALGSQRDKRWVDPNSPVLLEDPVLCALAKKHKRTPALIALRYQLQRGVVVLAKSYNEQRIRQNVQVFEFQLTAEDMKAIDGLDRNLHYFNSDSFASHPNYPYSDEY
Protocol: as §1, §2

[3] = molecular target: T3, HSD17B2 (Homo sapiens, UniProt P37059); experiment: Steroid substrate panel against HSD17B family member B2; settings: substrate at 50 μM; estradiol set as 100%
T3 construct: made in house
T3 sequence (P37059 1-387): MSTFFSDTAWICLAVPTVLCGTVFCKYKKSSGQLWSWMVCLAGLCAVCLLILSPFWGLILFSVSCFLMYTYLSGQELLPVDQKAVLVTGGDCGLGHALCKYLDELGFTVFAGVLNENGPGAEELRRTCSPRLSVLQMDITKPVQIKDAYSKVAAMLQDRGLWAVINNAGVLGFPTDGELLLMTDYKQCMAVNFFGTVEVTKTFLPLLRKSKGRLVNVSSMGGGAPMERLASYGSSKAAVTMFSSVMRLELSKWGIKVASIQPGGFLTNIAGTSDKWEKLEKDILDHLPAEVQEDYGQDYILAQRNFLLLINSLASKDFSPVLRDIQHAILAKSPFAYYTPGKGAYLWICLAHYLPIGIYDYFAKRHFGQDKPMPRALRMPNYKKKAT
Protocol: as §1, §2

[4] = molecular target: T4, HSD17B4 (Homo sapiens, UniProt P51659); experiment: Steroid substrate panel against HSD17B family member B4; settings: substrate at 50 μM; estradiol set as 100%
T4 construct: made in house
T4 sequence (P51659 1-736): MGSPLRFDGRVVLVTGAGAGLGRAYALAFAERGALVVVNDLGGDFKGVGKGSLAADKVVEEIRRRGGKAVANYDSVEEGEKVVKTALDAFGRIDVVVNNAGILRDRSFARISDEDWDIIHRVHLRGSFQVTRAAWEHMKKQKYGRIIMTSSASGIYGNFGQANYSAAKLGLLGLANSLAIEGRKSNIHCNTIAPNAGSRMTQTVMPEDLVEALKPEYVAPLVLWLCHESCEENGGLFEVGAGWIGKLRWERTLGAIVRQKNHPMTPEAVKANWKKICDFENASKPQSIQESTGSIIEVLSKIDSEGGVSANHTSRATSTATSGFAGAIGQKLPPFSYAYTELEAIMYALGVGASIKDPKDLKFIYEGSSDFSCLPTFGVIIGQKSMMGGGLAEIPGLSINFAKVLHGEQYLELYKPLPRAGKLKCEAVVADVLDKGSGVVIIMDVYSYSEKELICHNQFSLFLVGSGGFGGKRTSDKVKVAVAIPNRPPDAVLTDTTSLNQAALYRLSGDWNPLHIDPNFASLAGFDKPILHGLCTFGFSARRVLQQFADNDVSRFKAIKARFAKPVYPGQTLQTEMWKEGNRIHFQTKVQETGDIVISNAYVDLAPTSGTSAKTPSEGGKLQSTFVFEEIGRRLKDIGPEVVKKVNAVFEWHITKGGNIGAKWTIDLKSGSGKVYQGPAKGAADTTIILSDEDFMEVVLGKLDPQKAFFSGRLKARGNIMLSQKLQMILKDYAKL
Protocol: as §1, §2

[5] = molecular target: T5, HSD17B10 (Homo sapiens, UniProt Q99714); experiment: Steroid substrate panel against HSD17B family member B10; settings: substrate at 50 μM; estradiol set as 100%
T5 construct: made in house
T5 sequence (Q99714 1-261): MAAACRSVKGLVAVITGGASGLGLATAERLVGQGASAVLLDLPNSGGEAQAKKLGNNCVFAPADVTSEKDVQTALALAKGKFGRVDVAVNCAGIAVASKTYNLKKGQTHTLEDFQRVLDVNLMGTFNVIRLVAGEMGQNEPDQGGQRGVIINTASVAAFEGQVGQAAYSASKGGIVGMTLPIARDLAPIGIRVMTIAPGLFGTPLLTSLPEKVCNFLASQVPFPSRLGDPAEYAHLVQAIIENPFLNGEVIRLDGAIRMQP
Protocol: as §1, §2

[6] = molecular target: T6, HSD17B1 (Homo sapiens, UniProt P14061); experiment: Steroid substrate panel against HSD17B family member B1; settings: substrate at 50 μM; estradiol set as 100%
T6 construct: made in house
T6 sequence (P14061 1-328): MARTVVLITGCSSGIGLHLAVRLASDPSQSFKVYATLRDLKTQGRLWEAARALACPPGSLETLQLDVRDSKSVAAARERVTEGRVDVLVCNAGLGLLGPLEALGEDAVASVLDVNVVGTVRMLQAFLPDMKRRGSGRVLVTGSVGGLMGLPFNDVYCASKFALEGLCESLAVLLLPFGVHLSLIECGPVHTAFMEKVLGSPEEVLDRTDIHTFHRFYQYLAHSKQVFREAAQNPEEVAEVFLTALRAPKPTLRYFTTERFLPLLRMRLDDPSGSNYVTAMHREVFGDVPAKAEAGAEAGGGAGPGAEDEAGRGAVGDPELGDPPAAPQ
Protocol: as §1, §2

[7] = molecular target: T7, human HSD17B13 (Homo sapiens, UniProt Q7Z5P4); experiment: Substrate screening of steroid and bioactive lipid libraries against purified recombinant HSD17B13 (NADH-linked luciferase assay); settings: for HSD17B13 Enzymatic Activity Relative Light Units: 500 μM NAD+, 100 ng enzyme, 3 hours at 23° C.; for HSD17B13 Enzymatic Activity Percent Estradiol Control: normalized to 50 μM estradiol after subtraction of 5% DMSO
T7 sequence (Q7Z5P4 20-300): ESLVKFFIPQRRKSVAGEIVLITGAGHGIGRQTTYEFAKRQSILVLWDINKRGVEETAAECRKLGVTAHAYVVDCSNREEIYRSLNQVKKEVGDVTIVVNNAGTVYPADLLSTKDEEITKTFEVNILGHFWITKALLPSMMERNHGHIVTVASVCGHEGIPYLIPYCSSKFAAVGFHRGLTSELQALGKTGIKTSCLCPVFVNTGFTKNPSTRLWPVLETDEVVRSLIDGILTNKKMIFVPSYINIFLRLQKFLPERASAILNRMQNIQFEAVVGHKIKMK
Outline: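 Recombinant human HSD17B13 (100 ng) incubated 3 h at 23° C in 0.2 M Tris-HCl pH 7.5 with 500 μM NAD+ and 5 μM bioactive lipid or 50 μM steroid (5% DMSO). NADH measured by luciferase luminescence after 1 h; values as percent of 50 μM estradiol control after 5% DMSO subtraction.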

[8] = Bioactive Lipid Library, 5 μM bioactive lipid (Estradiol Control 50 μM)
[9] = Bioactive Lipid Library, 5 μM bioactive lipid

| Molecule | HSD17B13 Enzymatic Activity Relative Light Units [7, 8] | HSD17B13 Enzymatic Activity Percent Estradiol Control [7, 9] | other results |
| --- | --- | --- | --- |
| C[C@]12CC[C@@H](O)C[C@@H]1CC[C@@H]1[C@@H]2CC[C@]2(C)[C@@H](O)CC[C@@H]12 [3a-androstanediol] | – | – | Percent of Control (POC), B11 [1]: 0.0%; Percent of Control (POC), B5 [2]: 196%; Percent of Control (POC), B2 [3]: 6.2%; Percent of Control (POC), B4 [4]: 16.4%; Percent of Control (POC), B10 [5]: −0.4%; Percent of Control (POC), B1 [6]: 0.0% |
| C[C@]12CC[C@@H](O)C[C@@H]1CC[C@@H]1[C@@H]2[C@@H](O)C[C@@]2(C)[C@H]1CC[C@]2(O)C(=O)CO [5alpha-Tetrahydrocortisol] | – | – | Percent of Control (POC), B11 [1]: 0.0%; Percent of Control (POC), B5 [2]: 0%; Percent of Control (POC), B2 [3]: 3.1%; Percent of Control (POC), B4 [4]: 0.2%; HSD17B13 Enzymatic Activity Relative Light Units ([7]; Steroid Library, 50 μM steroid): 229040 RLU; HSD17B13 Enzymatic Activity Percent Estradiol Control ([7]; Steroid Library, 50 μM steroid): 1.20%; Percent of Control (POC), B10 [5]: 46.3%; Percent of Control (POC), B1 [6]: −0.1% |
| (±)11(12)-EET | 306600 RLU | 1.47% | – |
| Androstanolone acetate | – | – | HSD17B13 Enzymatic Activity Relative Light Units ([7]; Steroid Library, 50 μM steroid): 200560 RLU; HSD17B13 Enzymatic Activity Percent Estradiol Control ([7]; Steroid Library, 50 μM steroid): 0.70% |
| Cholesteryl Linoleate Hydroperoxides | 256120 RLU | −2.28% | – |
| D-myo-Inositol-1,2,3,4-tetraphosphate (sodium salt) | 447960 RLU | 9.28% | – |
| Epiandrosterone acetate | – | – | HSD17B13 Enzymatic Activity Relative Light Units ([7]; Steroid Library, 50 μM steroid): 210960 RLU; HSD17B13 Enzymatic Activity Percent Estradiol Control ([7]; Steroid Library, 50 μM steroid): 0.88% |
| Prostaglandin D2-biotin | 367880 RLU | 3.24% | – |
| Ptdlns-(3)-P1 (1,2-dioctanoyl) (sodium salt) | 319680 RLU | −0.40% | – |
| Ptdlns-(3)-P1 (1,2-dipalmitoyl) (ammonium salt) | 15520 RLU | −23.38% | – |
| Ptdlns-(3,4)-P2 (1,2-dipalmitoyl) (sodium salt) | 351680 RLU | 2.01% | – |
| Ptdlns-(3,4,5)-P3 (1,2-dipalmitoyl) (sodium salt) | 334600 RLU | 0.72% | – |
| Ptdlns-(4)-P1 (1,2-dipalmitoyl) (ammonium salt) | 123240 RLU | −15.24% | – |
| Ptdlns-(4,5)-P2 (1,2-dioctanoyl) (sodium salt) | 348680 RLU | 1.79% | – |
| Ptdlns-(4,5)-P2 (1,2-dipalmitoyl) (ammonium salt) | 24120 RLU | −22.73% | – |
| Ptdlns-(5)-P1 (1,2-dipalmitoyl) (ammonium salt) | 19160 RLU | −23.10% | – |
